Experimental findings from ChEMBL document CHEMBL1201862, “PubChem BioAssay data set” (2004) are described below.

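Compound exposure: 48 hours, 5 concentrations, 96-well plates. GI50: concentration for 50% inhibition of growth.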 Activity calls are given as the source filed them. No stated cut-off is given here; in the data, active = GI50 up to about 1.1 µM and inactive = higher. Bounds are passed on as bounds.

Among the test systems are DMS-114; LXFL 529; U-251; UO-31; SF-539; NCI-H226; COLO 205; CAKI-1; NCI-H23; KM-20L2; EKVX; SNB-78; HCC 2998; M14.
Common to all, as to test: NCI tumour cell line growth inhibition, 48 h

For `CC1NC(=O)C2=C1C(N)=NC(=O)C2` (stereo unspecified), the GI50 in the assay with DMS-114, in the assay with LXFL 529, with U-251, in the assay on UO-31, in the assay with SF-539 and in the assay on NCI-H226 was > 100 µM (inactive) each time. The GI50 with COLO 205, with CAKI-1, in the assay on NCI-H23, with KM-20L2, in the assay with EKVX and in the assay on SNB-78 was > 100 µM (inactive) in each case. Also, the GI50 in the assay with HCC 2998 and in the assay on M14 was > 100 µM (inactive) in each case.
Consider `COc1cccc(/C=C/C(=O)c2sc(C(N)=S)nc2C)c1O`, for which the GI50 in the assay with DMS-114 was 50.6 µM (inactive); with LXFL 529, 14.3 µM (inactive); in the assay with U-251, 28.8 µM (inactive); with UO-31 it was 56.4 µM (inactive); in the assay on SF-539, 52.7 µM (inactive); in the assay on NCI-H226 it was > 100 µM (inactive). The GI50 was > 68.2 µM (inactive) in the assay on COLO 205; > 100 µM (inactive) with CAKI-1; 68.1 µM (inactive) with NCI-H23; > 100 µM (inactive) in the assay with KM-20L2; > 100 µM (inactive) in the assay on EKVX; > 100 µM (inactive) with SNB-78. Further, the figures for the GI50 in the assay on HCC 2998 and in the assay with M14 were 75.5 µM (inactive) and > 77.4 µM (inactive), respectively.
`CC1CCC(=O)C(C(O)CC2CC(=O)N(c3ccccc3)C(=O)C2)C1` (stereo unspecified): the GI50 in the assay on DMS-114, in the assay with LXFL 529, in the assay on U-251, in the assay on UO-31, with SF-539 and with NCI-H226 was > 100 µM (inactive) in each case. Also, the GI50 with COLO 205, in the assay on CAKI-1, in the assay with NCI-H23, with KM-20L2, with EKVX and with SNB-78 was > 100 µM (inactive) throughout. The GI50 in the assay on HCC 2998 and with M14 was > 100 µM (inactive) each time.
On to `Cc1cc(O)nc(NNC(C#N)c2ccc(O)cc2)n1` (stereo unspecified), for which the GI50 with DMS-114, in the assay with LXFL 529, in the assay on U-251, in the assay on UO-31, in the assay on SF-539 and with NCI-H226 was > 100 µM (inactive) throughout. Also, the GI50 is > 100 µM (inactive) in the assay on COLO 205; > 100 µM (inactive) in the assay with CAKI-1; > 100 µM (inactive) in the assay on NCI-H23; > 100 µM (inactive) with KM-20L2; 83.8 µM (inactive) with SNB-78; > 100 µM (inactive) with M14.
Regarding `CC(=O)n1nnc2ccc([N+](=O)[O-])cc21`, the GI50 in the assay with DMS-114, in the assay with LXFL 529, in the assay on U-251, with UO-31, with SF-539 and with NCI-H226 was > 100 µM (inactive) throughout. Besides, the GI50 in the assay with COLO 205, in the assay with CAKI-1, in the assay on NCI-H23, in the assay with KM-20L2, with EKVX and with SNB-78 was > 100 µM (inactive) each time. For the same compound, the GI50 with M14 was > 100 µM (inactive).
For `CCOC(=O)/C=C1\Oc2ccccc2C1(C)O` (stereo unspecified), the GI50 with DMS-114, in the assay on LXFL 529, in the assay on U-251, in the assay with UO-31, in the assay with NCI-H226 and in the assay with COLO 205 was > 100 µM (inactive) each time. For the same compound, the GI50 in the assay on CAKI-1, with NCI-H23, in the assay with KM-20L2, in the assay on EKVX, in the assay on SNB-78 and with HCC 2998 was > 100 µM (inactive) in each case. In addition, the GI50 in the assay with M14 was > 100 µM (inactive).
With `CC1=N/C(=C/c2ccc3c(c2)OCO3)C(=O)O1`, the GI50 in the assay on DMS-114, in the assay on LXFL 529, with U-251, in the assay on UO-31, in the assay with SF-539 and in the assay with COLO 205 was > 100 µM (inactive) each time. The GI50 in the assay with CAKI-1, with NCI-H23, with KM-20L2, in the assay on EKVX, in the assay on SNB-78 and in the assay with M14 was > 100 µM (inactive) each time.
For the compound `CC(=O)NC(CCCNC(=O)N(C)N=O)C(=O)NCc1ccccc1` (stereo unspecified), the GI50 in the assay with DMS-114, in the assay with LXFL 529, in the assay on U-251, in the assay on UO-31, in the assay with SF-539 and in the assay on NCI-H226 was > 100 µM (inactive) in each case. In addition, the GI50 in the assay with COLO 205, with CAKI-1, with NCI-H23, in the assay on KM-20L2, in the assay on EKVX and with SNB-78 was > 100 µM (inactive) in each case. The GI50 in the assay on HCC 2998 and in the assay with M14 was > 100 µM (inactive) each time.
Consider `COC(=O)C#CC(N)=O`, for which the GI50 in the assay on DMS-114, with LXFL 529, in the assay on U-251, with UO-31, in the assay with SF-539 and in the assay on NCI-H226 was > 100 µM (inactive) each time. Further, the GI50 is > 100 µM (inactive) in the assay on COLO 205; 28.1 µM (inactive) in the assay on CAKI-1; > 100 µM (inactive) in the assay with NCI-H23; > 31.6 µM (inactive) in the assay with KM-20L2; > 100 µM (inactive) with EKVX; > 100 µM (inactive) in the assay with SNB-78. For the same compound, the GI50 was > 100 µM (inactive) in the assay on HCC 2998 and 19.5 µM (inactive) in the assay with M14.
Turning to `O=C(Nc1nc2ncn(CCO)c2c(=O)[nH]1)c1ccccc1`, the GI50 in the assay on DMS-114, with LXFL 529, in the assay with U-251, with UO-31, with SF-539 and in the assay with NCI-H226 was > 100 µM (inactive) in each case. In addition, the GI50 in the assay with COLO 205, with CAKI-1, in the assay on KM-20L2, in the assay on EKVX, in the assay on SNB-78 and in the assay on M14 was > 100 µM (inactive) in each case.
With `C[C@]12CCC(=O)C=C1CC[C@@H]1C2CC[C@]2(C)NC(=O)C(C#N)CC12` (stereo partly specified), the GI50 in the assay with DMS-114, with LXFL 529, in the assay with U-251, with UO-31, in the assay on SF-539 and with NCI-H226 was > 100 µM (inactive) each time. The GI50 with CAKI-1 was > 100 µM (inactive); with NCI-H23 it was > 100 µM (inactive); with KM-20L2, 53.6 µM (inactive); in the assay on SNB-78, > 100 µM (inactive); in the assay on HCC 2998, > 100 µM (inactive); with M14, > 100 µM (inactive).
For `O=C(NCCNCCO)N/N=C/c1cccc([N+](=O)[O-])c1`, the GI50 in the assay on DMS-114, in the assay with LXFL 529, with U-251, in the assay with UO-31, in the assay with SF-539 and in the assay with NCI-H226 was > 100 µM (inactive) in each case. Besides, the GI50 in the assay with COLO 205, with CAKI-1, in the assay on NCI-H23, in the assay with KM-20L2, in the assay with SNB-78 and with M14 was > 100 µM (inactive) throughout.
With `CN(C)CCC1(C2=CCCC2)CC/C(=C\c2ccccc2)C1=O` (stereo unspecified), the GI50 with DMS-114 was 16.1 µM (inactive); with LXFL 529, 16.1 µM (inactive); with U-251, 16.6 µM (inactive); in the assay with UO-31 it was 16.6 µM (inactive); in the assay on SF-539, 16.6 µM (inactive); with NCI-H226 it was 16.9 µM (inactive). For the same compound, the GI50 in the assay on COLO 205 was 14.5 µM (inactive); in the assay on CAKI-1, 12.5 µM (inactive); with NCI-H23, 21.8 µM (inactive); in the assay with KM-20L2 it was 13.1 µM (inactive); in the assay with EKVX, 11.8 µM (inactive); in the assay on SNB-78, 19.7 µM (inactive). The figures for the GI50 with HCC 2998 and in the assay with M14 were 15.8 µM (inactive) and 16.4 µM (inactive), respectively.
In the case of `CCCCCC[N+](C)(C)Cc1ccc(C[N+](C)(C)CCCCCC)cc1`, the GI50 with DMS-114 was 1.75 µM (inactive); in the assay with LXFL 529, 3.33 µM (inactive); in the assay on U-251, 2.57 µM (inactive); in the assay with UO-31, 8.43 µM (inactive); in the assay with NCI-H226, 3.51 µM (inactive); in the assay with COLO 205, 1.82 µM (inactive). The GI50 in the assay with CAKI-1 was 3.19 µM (inactive); in the assay with NCI-H23 it was 1.82 µM (inactive); with KM-20L2, 6.56 µM (inactive); with EKVX, 3.94 µM (inactive); with SNB-78, 1.16 µM (inactive); with HCC 2998, 3.84 µM (inactive). The GI50 with M14 is 3.48 µM (inactive).
Turning to `CC(C)(O)/C=C/C(=O)[C@](C)(O)[C@H]1[C@H](O)C[C@@]2(C)[C@@H]3CC=C4[C@@H](C[C@H](O)C(=O)C4(C)C)[C@]3(C)C(=O)C[C@]12C` [CUCURBITACIN D], the GI50 was 0.199 µM (active) in the assay on DMS-114; 0.073 µM (active) in the assay with LXFL 529; 0.0923 µM (active) in the assay on U-251; 0.272 µM (active) with UO-31; 0.0826 µM (active) with SF-539; 0.277 µM (active) in the assay on NCI-H226. Moreover, the GI50 is 0.181 µM (active) in the assay on COLO 205; 0.116 µM (active) in the assay with CAKI-1; 1.07 µM (active) in the assay on NCI-H23; 0.163 µM (active) in the assay with KM-20L2; 0.375 µM (active) in the assay with EKVX; 0.0867 µM (active) in the assay on SNB-78. In addition, the GI50 in the assay on M14 is 0.076 µM (active).
